Data taken from patent US11103488B2, “Methods of treating autoimmune, respiratory and inflammatory disorders by inhalation of roflumilast N-oxide” (Incozen Therapeutics Pvt. Ltd., priority 2013, dated 2021).
Where two headings read alike, the source gives them in different places.

Columns and labels:
[1] = Lung microsome metabolic stability, human; format: in vitro ADME; conditions: 1 μM test item, 60 minutes, NADPH
Experimental: Metabolic stability studies were conducted using rat, dog and human lung microsomes. The protocol for the studies with rat, dog, and human lung microsomes (from Xenotech, USA) is provided below.
0.4 mg protein was preincubated with 2 mM NADPH (cofactor) in phosphate buffer (pH˜7.4) for 15 minutes at […] and then added with 1 μM test item and incubated further for 60 minutes in triplicate. The reaction mixture was terminated with methanol containing an internal standard and centrifuged further to analyze the test item remaining in the supernatant by LC-MS/MS. The percent parent compound remaining was calculated in comparison with similar samples terminated at 0 minutes.

[2] = Pulmonary kinetics by intratracheal route, single dose; format: in vivo, Wistar rats; conditions: single dose 1 mg/kg IT
Experimental: (§1) Male and female Wistar rats were weighed and randomized for groups for various time points. Roflumilast N-oxide was prepared as a suspension in a suitable vehicle for intratracheal administration. For intratracheal dosing, animals were anesthetized with ketamine (50 mg/kg; i.p.) and roflumilast N-oxide was administered via an Intratracheal Microsprayer® Aerosolizer for Rat with a 0.5 ml glass syringe (Model IA-1B-R-GL500) (Penn Century, US). A volume level of 0.5 ml/kg was administered into the airway system of the rat at a dose of 1.0 mg/kg for the single dose and multiple dose study. The animals were kept under normal regular diet conditions and rat chew diet was provided ad libitum throughout the study. The blood and lung samples (all collections each of 150 μl from each animal) were collected according to the sampling schedule. Blood samples were collected from orbital sinus into the microfuge tubes containing dipotassium EDTA as an anticoagulant. Blood samples were centrifuged immediately with a speed of 1000 g for 10 minutes at 4° C. and separated plasma samples were frozen at below −80° C. and stored until analysis. The plasma and lung concentrations of roflumilast N-oxide in all samples were analyzed by LC-MS/MS (using X-Calibur 2.0.7 software) as per the established method. The samples below the lower limit of quantification (LOQ) were mentioned as (BLQ) below level of quantification in raw data and the results were tabulated accordingly. Pharmacokinetic parameters Cmax, AUC0-t, AUC0-∞, Tmax, t1/2, Kel, VZ, and CLZ were estimated for the above concentrations using WinNonlin (Phoenix 6.1 software) and the results were tabulated. Pharmacokinetic parameters in plasma were calculated from concentration data as ng/ml. Cmax and AUC values were reported in terms of ng/ml and ng·h/ml, respectively.
(§2) Pharmacokinetic parameters in the lungs were calculated from concentration data as ng/g. Cmax and AUC values were reported in terms of ng/g and ng·h/g, respectively. The lung to plasma concentration ratio was calculated by assuming equal to 1 the plasma density. The time-mean plasma concentration plots for roflumilast N-oxide were done using Graph pad Prism 5.02 software.

[3] = Pulmonary kinetics by intratracheal route, multiple dose (7 days); format: in vivo, Wistar rats; conditions: 1 mg/kg IT for 7 days; for Tmax / half-life / AUC(0-inf) / AUC(0-t) / Cmax: 1 mg/kg
Experimental: as §1, §2

[4] = system: macrophage infiltration; experiment: Acute cigarette smoke induced cell infiltration, macrophages; format: in vivo, female Balb/c mice; conditions: for Percent inhibition in macrophage infiltration: intranasal, day 1 to day 4
Experimental: (§3) Animals were acclimatized for seven days prior to the start of the experiment. The animals were randomly distributed to various groups based on their body weight. For oral administration of roflumilast and for intranasal administration of roflumilast N-oxide, roflumilast or roflumilast N-oxide were prepared as a suspension in a suitable vehicle. On day 1, mice were administered roflumilast N-oxide or roflumilast and after 1 hour, the animals were placed in a whole body exposure box. On day 1 and day 2, the mice were exposed to the mainstream smoke of 6 cigarettes, and 8 cigarettes on day 3 and day 4. Exposure to the smoke of each cigarette lasted for 10 minutes (cigarettes were completely burned in the first two minutes and followed by an air flow with animal ventilator, then 20 minutes exposure to fresh room air). After every second cigarette an additional break of 20 minutes with exposure to fresh room air was conducted. Control animals were exposed to room air chamber. From day 1 to day 4, the animals were administered roflumilast N-oxide or roflumilast. On day 5, 24 hours after the last cigarette smoke (CS) exposure, the animals were exsanguinated under anaesthesia, the trachea were cannulated and the lungs were lavaged with 0.5-ml aliquots of heparinised PBS (1 unit/ml) four times through tracheal cannula (total volume 2 ml). Bronchioalveolar (BAL) collected was stored at 2-8° C. until assayed for total cell and differential leukocyte count. BAL fluid was centrifuged (500×g for 10 minutes) and the resulting cell pellet was resuspended in 0.5 ml of heparinised saline. The total number of white blood cells was determined in BAL fluid and adjusted to 1×10^6 cell/ml. Differential cell count was calculated manually by diff-quick staining. Forty microliters of the cell suspension was centrifuged using cytospin 3 to prepare a cell smear. The cell smear was stained with a blood staining solution for differentiation and microscopically observed to identify cell type according to their morphological characteristics. The number of each cell type among 300 white blood cells in the cell smear were determined and expressed as a percentage, and the number of neutrophils and macrophages in each BAL fluid were calculated.
(§4) Roflumilast and roflumilast N-oxide as a suspension in polysorbate 80 (1% v/v) and methyl cellulose (MC) (0.5% w/v) were used for oral and intranasal administration respectively.

[5] = system: neutrophil infiltration; experiment: Acute cigarette smoke induced cell infiltration, neutrophils; format: in vivo, female Balb/c mice; conditions: for Percent inhibition in neutrophil infiltration: intranasal, day 1 to day 4
Experimental: as §3, §4

**Q.** For O=C(Nc1c(Cl)c[n+]([O-])cc1Cl)c1ccc(OC(F)F)c(OCC2CC2)c1 [Roflumilast N-oxide], which “Percent Parent Compound Remaining, Human Non Smoker” value ([1]; human non smoker lung microsomes) is on record?
**A.** 91.5%

**Q.** What about the “Percent Parent Compound Remaining, Human Smoker” value ([1]; human smoker lung microsomes) of the same compound?
**A.** 99.3%

**Q.** What about the Tmax ([2]; both sexes, Wistar, rat, inhaled or intranasal, lung, read-out: Tmax, Lung, N-Oxide) of the same compound?
**A.** 15 min

**Q.** And the half-life ([2]; both sexes, Wistar, rat, inhaled or intranasal, lung, read-out: t1/2, Lung, N-Oxide (converted))?
**A.** 152 min

**Q.** What about the AUC(0-t) ([2]; both sexes, Wistar, rat, inhaled or intranasal, plasma, read-out: AUC0-t, Plasma, N-Oxide) of the same compound?
**A.** 4.16 µg·h/mL

**Q.** What about the Cmax ([2]; both sexes, Wistar, rat, inhaled or intranasal, plasma, read-out: Cmax, Plasma, N-Oxide) of the same compound?
**A.** 0.53 µg/mL

**Q.** And the Tmax ([2]; both sexes, Wistar, rat, inhaled or intranasal, plasma, read-out: Tmax, Plasma, N-Oxide)?
**A.** 15 min

**Q.** And the half-life ([2]; both sexes, Wistar, rat, inhaled or intranasal, plasma, read-out: t1/2, Plasma, N-Oxide (converted))?
**A.** 326 min

**Q.** And the “AUC0-inf, Lung, N-Oxide” value ([2]; lung)?
**A.** 47960 ng·h/g

**Q.** What about the “AUC0-t, Lung, N-Oxide” value ([2]; lung) of the same compound?
**A.** 47880 ng·h/g

**Q.** What about the “Cmax, Lung, N-Oxide” value ([2]; lung) of the same compound?
**A.** 26350 ng/g

**Q.** And the “AUC0-inf, Lung, Day-1, N-Oxide” value ([3]; lung, Day-1)?
**A.** 47.96 µg·h/g

**Q.** And the “AUC0-t, Lung, Day-1, N-Oxide” value ([3]; lung, Day-1)?
**A.** 47.88 µg·h/g

**Q.** And the “Cmax, Lung, Day-1, N-Oxide” value ([3]; lung, Day-1)?
**A.** 26.35 µg/g

**Q.** And the “AUC0-inf, Lung, Day-7, N-Oxide” value ([3]; lung, Day-7)?
**A.** 18.04 µg·h/g

**Q.** What about the “AUC0-t, Lung, Day-7, N-Oxide” value ([3]; lung, Day-7) of the same compound?
**A.** 17.96 µg·h/g

**Q.** And the “AUCtau, Lung, Day-7, N-Oxide” value ([3]; lung, Day-7)?
**A.** 18.51 µg·h/g

**Q.** What about the “Cavg, Lung, Day-7, N-Oxide” value ([3]; lung, Day-7) of the same compound?
**A.** 0.77 µg/g

**Q.** And the “Cmax, Lung, Day-7, N-Oxide” value ([3]; lung, Day-7)?
**A.** 23.15 µg/g

**Q.** And the “Cmin, Lung, Day-7, N-Oxide” value ([3]; lung, Day-7)?
**A.** 0.00 µg/g

**Q.** And the “Cavg, Plasma, Day-7, N-Oxide” value ([3]; plasma, Day-7)?
**A.** 0.12 µg/mL

**Q.** What about the “Cmin, Plasma, Day-7, N-Oxide” value ([3]; plasma, Day-7) of the same compound?
**A.** 0.00 µg/mL

**Q.** And the AUC ([3]; both sexes, Wistar, rat, inhaled or intranasal, plasma, Day-7, read-out: AUCtau, Plasma, Day-7, N-Oxide)?
**A.** 2.81 µg·h/mL

**Q.** And the Tmax ([3]; both sexes, Wistar, rat, lung, inhaled or intranasal, lung, Day-1, read-out: Tmax, Lung, Day-1, N-Oxide)?
**A.** 15 min

**Q.** And the half-life ([3]; both sexes, Wistar, rat, lung, inhaled or intranasal, lung, Day-1, read-out: t1/2, Lung, Day-1, N-Oxide (converted))?
**A.** 152 min

**Q.** What about the Tmax ([3]; both sexes, Wistar, rat, lung, inhaled or intranasal, lung, Day-7, read-out: Tmax, Lung, Day-7, N-Oxide) of the same compound?
**A.** 15 min

**Q.** What about the half-life ([3]; both sexes, Wistar, rat, lung, inhaled or intranasal, lung, Day-7, read-out: t1/2, Lung, Day-7, N-Oxide (converted)) of the same compound?
**A.** 48.6 min

**Q.** And the AUC(0-inf) ([3]; both sexes, Wistar, rat, plasma, inhaled or intranasal, plasma, Day-1, read-out: AUC0-inf, Plasma, Day-1, N-Oxide)?
**A.** 4.35 µg·h/mL

**Q.** What about the AUC(0-t) ([3]; both sexes, Wistar, rat, plasma, inhaled or intranasal, plasma, Day-1, read-out: AUC0-t, Plasma, Day-1, N-Oxide) of the same compound?
**A.** 4.16 µg·h/mL

**Q.** And the Cmax ([3]; both sexes, Wistar, rat, plasma, inhaled or intranasal, plasma, Day-1, read-out: Cmax, Plasma, Day-1, N-Oxide)?
**A.** 0.53 µg/mL

**Q.** And the Tmax ([3]; both sexes, Wistar, rat, plasma, inhaled or intranasal, plasma, Day-1, read-out: Tmax, Plasma, Day-1, N-Oxide)?
**A.** 15 min

**Q.** And the half-life ([3]; both sexes, Wistar, rat, plasma, inhaled or intranasal, plasma, Day-1, read-out: t1/2, Plasma, Day-1, N-Oxide (converted))?
**A.** 326 min

**Q.** And the AUC(0-inf) ([3]; both sexes, Wistar, rat, plasma, inhaled or intranasal, plasma, Day-7, read-out: AUC0-inf, Plasma, Day-7, N-Oxide)?
**A.** 2.39 µg·h/mL

**Q.** What about the AUC(0-t) ([3]; both sexes, Wistar, rat, plasma, inhaled or intranasal, plasma, Day-7, read-out: AUC0-t, Plasma, Day-7, N-Oxide) of the same compound?
**A.** 2.25 µg·h/mL

**Q.** And the Cmax ([3]; both sexes, Wistar, rat, plasma, inhaled or intranasal, plasma, Day-7, read-out: Cmax, Plasma, Day-7, N-Oxide)?
**A.** 0.56 µg/mL

**Q.** What about the Tmax ([3]; both sexes, Wistar, rat, plasma, inhaled or intranasal, plasma, Day-7, read-out: Tmax, Plasma, Day-7, N-Oxide) of the same compound?
**A.** 60 min

**Q.** What about the half-life ([3]; both sexes, Wistar, rat, plasma, inhaled or intranasal, plasma, Day-7, read-out: t1/2, Plasma, Day-7, N-Oxide (converted)) of the same compound?
**A.** 91.8 min

**Q.** What about the ED50 ([4]; Mus musculus, Macrophage, inhaled or nasal, intranasal administration, read-out: 50% inhibition (ED50) dose, macrophage infiltration) of the same compound?
**A.** 0.049 mg/kg

**Q.** What about the “Percent inhibition in macrophage infiltration” value ([4]; 0.003 mg/kg) of the same compound?
**A.** 50.68%

**Q.** And the “Percent inhibition in macrophage infiltration” value ([4]; 0.03 mg/kg)?
**A.** 55.10%

**Q.** What about the “Percent inhibition in macrophage infiltration” value ([4]; 0.3 mg/kg) of the same compound?
**A.** 62.79%

**Q.** And the “Percent inhibition in macrophage infiltration” value ([4]; 3 mg/kg)?
**A.** 63.35%

**Q.** And the ED50 ([5]; Mus musculus, Neutrophil, inhaled or nasal, intranasal administration, read-out: 50% inhibition (ED50) dose, neutrophil infiltration)?
**A.** 0.038 mg/kg

**Q.** And the “Percent inhibition in neutrophil infiltration” value ([5]; 0.003 mg/kg)?
**A.** 26.60%

**Q.** And the “Percent inhibition in neutrophil infiltration” value ([5]; 0.03 mg/kg)?
**A.** 59.28%

**Q.** What about the “Percent inhibition in neutrophil infiltration” value ([5]; 0.3 mg/kg) of the same compound?
**A.** 66.49%

**Q.** And the “Percent inhibition in neutrophil infiltration” value ([5]; 3 mg/kg)?
**A.** 72.08%
